According to PMC8829872 (Cancer chemotherapy and pharmacology, 2022):
Like-named read-outs stand apart in the source and are kept apart here.

How the values were obtained:
[1] = Intestinal contribution to oral bioavailability (hepatic and gut contributions calculated from IV PK); format: in vivo, mice; conditions: 10 mg/kg IV
Procedure: The contribution of gut to oral bioavailability was estimated by calculating the contribution of liver processes to bioavailability from IV data and stripping this contribution from the observed bioavailabilities. Assuming IV drug clearance was restricted to hepatic processes, the predicted bioavailability based solely on liver processes, FH, was calculated from IV PK. […] Fe was derived from the amount of drug measured in urine (Ae) and the total amount of drug administered, see Eq. (7). ClBlood was defined by multiplying the observed plasma clearance (Clplasma) by the ratio of plasma exposure (AUCplasma) to total blood exposure (AUCBlood), see Eq. (8). AUCBlood was calculated using hematocrit (HCT) to construct total blood exposure contributions from exposure in RBC (AUCRBC) and plasma, see Eq. (9).

[2] = Extensive tissue distribution study in CT26 tumor-bearing mice; format: in vivo, Balb/c mice; conditions: for Kp: oral, 75 mg/kg
Procedure: Mice were injected subcutaneously on the right flank with 1x10^6 CT26 cells, a murine colorectal carcinoma cell line from BALB/c mice,obtained from ATCC (Manassas, VA). Cells were cultured in RPMI-1640 medium with L-glutamine (BioWhittaker Inc., Walkersville, MD), containing 10% heat-inactivated fetal bovine serum and 100 units of penicillin/mL and 100 μg/mL of streptomycin (Biofluids, BioSource, Rockville, MD) in an incubator with 95% air, 5% CO2, and 95% humidity at 37 °C. Cells were verified and checked for mycoplasm by IDEXX BioAnalytics (Westbrook, ME). Implantation and tumor growth were monitored twice weekly with a digital caliper. When tumors were approximately 200 mm^3, mice were stratified into time groups (N=3) primarily using body weight and secondarily using tumor size. Mice were administered 75 mg/kg PO through oral gavage. […] Bone marrow was obtained by flushing both femurs from each mouse with PBS, followed by centrifugation at 12,000 x g and removal of the supernatant. Protein analysis of the resuspended pellet was conducted using the Bio-Rad protein assay following the manufacturer’s instructions with bovine serum albumin as the standard. Blood was processed to obtain plasma and urine and feces were collected as described above.
For tissue and tumor analysis, samples were homogenized with 3 parts PBS (v/g) and further diluted with control plasma and concentrations determined from calibration curves prepared in control plasma.

[3] = Balb/c, mouse, 75 mg/kg PO-ext, plasma

ClBlood [1]: 0.550 mL/min
Fraction excreted, Fe ([1]; urine): 0.0191
clearance ([1]; Balb/c, plasma, average mouse size 18.3 g, read-out: ClPlasma): 0.634 mL/min
Cl ([2]; 75 mg/kg PO-ext): 37.3 mL/min/kg
Vd ([2]; 75 mg/kg PO-ext): 5.66 L/kg
0-24h urine ([2]; 75 mg/kg PO-ext, unaltered drug): 3.19 % dose
0-24h feces ([2]; 75 mg/kg PO-ext, unchanged drug): 8.58 % dose
AUC0-∞ ([2]; 75 mg/kg PO, Plasma): 2,371 (185) μg/mL•min
Cmax ([2]; 75 mg/kg PO, Plasma): 14.1 (1.7) μg/mL
Tmax ([2]; 75 mg/kg PO, Plasma): 15 min
AUC(0-t) ([2]; 75 mg/kg PO, Plasma, 0-1440 min): 2,371 (185) μg/mL•min
Kp ([2]; Balb/c, mouse, bone marrow / plasma, 75 mg/kg PO, Bone Marrow to corresponding plasma AUC (0-360), read-out: Partition Coefficient): 4.6
Kp ([2]; Balb/c, mouse, brain, 75 mg/kg PO, Brain to corresponding plasma AUC (0-960), read-out: Partition Coefficient): ~0.05
Kp ([2]; Balb/c, mouse, draining lymph node / plasma, 75 mg/kg PO, Draining Lymph Node to plasma AUC, read-out: Partition Coefficient): 0.792
Kp ([2]; Balb/c, mouse, esophagus / plasma, 75 mg/kg PO, Esophagus to plasma AUC, read-out: Partition Coefficient): 3.27
Kp ([2]; Balb/c, mouse, fat, 75 mg/kg PO, Fat to plasma AUC, read-out: Partition Coefficient): 0.412
Kp ([2]; Balb/c, mouse, kidney / plasma, 75 mg/kg PO, Kidneys to plasma AUC, read-out: Partition Coefficient): 2.77
AUC(0-inf) ([2]; Balb/c, mouse, kidney, 75 mg/kg PO, Kidneys): 109000 ng·h/mL
AUC(0-t) ([2]; Balb/c, mouse, kidney, 75 mg/kg PO, Kidneys, 0-1440 min, read-out: AUC0-t (converted)): 109000 ng·h/mL
Cmax ([2]; Balb/c, mouse, kidney, 75 mg/kg PO, Kidneys, read-out: Cmax): 39200 ng/mL
Tmax ([2]; Balb/c, mouse, kidney, 75 mg/kg PO, Kidneys, read-out: Tmax (converted)): 15 min
Kp ([2]; Balb/c, mouse, liver / plasma, 75 mg/kg PO, Liver to plasma AUC, read-out: Partition Coefficient): 7.42
AUC(0-inf) ([2]; Balb/c, mouse, lung, 75 mg/kg PO, Lungs): 42100 ng·h/mL
AUC(0-t) ([2]; Balb/c, mouse, lung, 75 mg/kg PO, Lungs, 0-1440 min, read-out: AUC0-t (converted)): 42100 ng·h/mL
Cmax ([2]; Balb/c, mouse, lung, 75 mg/kg PO, Lungs, read-out: Cmax): 17400 ng/mL
Tmax ([2]; Balb/c, mouse, lung, 75 mg/kg PO, Lungs, read-out: Tmax (converted)): 15 min
Kp ([2]; Balb/c, mouse, non-draining lymph node / plasma, 75 mg/kg PO, Non-draining Lymph Node to plasma AUC, read-out: Partition Coefficient): 0.983
Kp ([2]; Balb/c, mouse, red blood cells (RBC) / plasma, 75 mg/kg PO, RBC to plasma AUC, read-out: Partition Coefficient): 0.701
AUC(0-inf) ([2]; Balb/c, mouse, red blood cells (RBC), 75 mg/kg PO, RBC): 27700 ng·h/mL
AUC(0-t) ([2]; Balb/c, mouse, red blood cells (RBC), 75 mg/kg PO, RBC, 0-1440 min, read-out: AUC0-t (converted)): 27700 ng·h/mL
Cmax ([2]; Balb/c, mouse, red blood cells (RBC), 75 mg/kg PO, RBC, read-out: Cmax): 13200 ng/mL
Tmax ([2]; Balb/c, mouse, red blood cells (RBC), 75 mg/kg PO, RBC, read-out: Tmax (converted)): 15 min
AUC(0-inf) ([2]; Balb/c, mouse, skeletal muscle, 75 mg/kg PO, Muscle): 41200 ng·h/mL
AUC(0-t) ([2]; Balb/c, mouse, skeletal muscle, 75 mg/kg PO, Muscle, 0-1440 min, read-out: AUC0-t (converted)): 41200 ng·h/mL
Cmax ([2]; Balb/c, mouse, skeletal muscle, 75 mg/kg PO, Muscle, read-out: Cmax): 12500 ng/mL
Tmax ([2]; Balb/c, mouse, skeletal muscle, 75 mg/kg PO, Muscle, read-out: Tmax (converted)): 15 min
Kp ([2]; Balb/c, mouse, small intestine / plasma, 75 mg/kg PO, Small Intestine to plasma AUC, read-out: Partition Coefficient): 8.39
Kp ([2]; Balb/c, mouse, spinal cord, 75 mg/kg PO, Spinal Cord to plasma AUC, read-out: Partition Coefficient): ~0.05
Kp ([2]; Balb/c, mouse, spleen / plasma, 75 mg/kg PO, Spleen to plasma AUC, read-out: Partition Coefficient): 0.891
Kp ([2]; Balb/c, mouse, thymus / plasma, 75 mg/kg PO, Thymus to plasma AUC, read-out: Partition Coefficient): 0.652
Kp ([2]; Balb/c, mouse, tumor / plasma, 75 mg/kg PO, Tumor to plasma AUC, read-out: Partition Coefficient): 0.75
Kp ([2]; Balb/c, mouse, tumor, 75 mg/kg PO, CT26 tumor, read-out: Tumor exposure relative to plasma): ~0.75
Cmax ([2]; Balb/c, mouse, 75 mg/kg PO-ext (tissue distribution study), plasma, read-out: Cmax): 14100 ng/mL
AUC(0-inf) [2, 3]: 39500 ng·h/mL
half-life [2, 3]: 105 min
AUC(0-t) ([2]; Balb/c, mouse, 75 mg/kg PO-ext, plasma, read-out: AUC0-360 (converted)): 39500 ng·h/mL
Tmax ([2]; Balb/c, mouse, 75 mg/kg PO-ext, plasma, read-out: Tmax (converted)): 15 min
AUC(0-inf) ([2]; Balb/c, mouse, 75 mg/kg PO, Bone Marrow): 133000 ng·h/mL
AUC(0-t) ([2]; Balb/c, mouse, 75 mg/kg PO, Bone Marrow, 0-360 min, read-out: AUC0-t (converted)): 133000 ng·h/mL
Cmax ([2]; Balb/c, mouse, 75 mg/kg PO, Bone Marrow, read-out: Cmax): 65800 ng/mL
Tmax ([2]; Balb/c, mouse, 75 mg/kg PO, Bone Marrow, read-out: Tmax (converted)): 30 min
AUC(0-inf) ([2]; Balb/c, mouse, 75 mg/kg PO, Brain): 2100 ng·h/mL
AUC(0-t) ([2]; Balb/c, mouse, 75 mg/kg PO, Brain, 0-960 min, read-out: AUC0-t (converted)): 2100 ng·h/mL
Cmax ([2]; Balb/c, mouse, 75 mg/kg PO, Brain, read-out: Cmax): 854 ng/mL
Tmax ([2]; Balb/c, mouse, 75 mg/kg PO, Brain, read-out: Tmax (converted)): 15 min
AUC(0-inf) ([2]; Balb/c, mouse, 75 mg/kg PO, CT26 Tumor): 29600 ng·h/mL
AUC(0-t) ([2]; Balb/c, mouse, 75 mg/kg PO, CT26 Tumor, 0-1440 min, read-out: AUC0-t (converted)): 29600 ng·h/mL
Cmax ([2]; Balb/c, mouse, 75 mg/kg PO, CT26 Tumor, read-out: Cmax): 10100 ng/mL
Tmax ([2]; Balb/c, mouse, 75 mg/kg PO, CT26 Tumor, read-out: Tmax (converted)): 30 min
AUC(0-inf) ([2]; Balb/c, mouse, 75 mg/kg PO, Draining Lymph Node): 31300 ng·h/mL
AUC(0-t) ([2]; Balb/c, mouse, 75 mg/kg PO, Draining Lymph Node, 0-1440 min, read-out: AUC0-t (converted)): 31200 ng·h/mL
Cmax ([2]; Balb/c, mouse, 75 mg/kg PO, Draining Lymph Node, read-out: Cmax): 12100 ng/mL
Tmax ([2]; Balb/c, mouse, 75 mg/kg PO, Draining Lymph Node, read-out: Tmax (converted)): 15 min
AUC(0-inf) ([2]; Balb/c, mouse, 75 mg/kg PO, Esophagus): 129000 ng·h/mL
AUC(0-t) ([2]; Balb/c, mouse, 75 mg/kg PO, Esophagus, 0-1440 min, read-out: AUC0-t (converted)): 129000 ng·h/mL
Cmax ([2]; Balb/c, mouse, 75 mg/kg PO, Esophagus, read-out: Cmax): 115000 ng/mL
Tmax ([2]; Balb/c, mouse, 75 mg/kg PO, Esophagus, read-out: Tmax (converted)): 5 min
AUC(0-inf) ([2]; Balb/c, mouse, 75 mg/kg PO, Fat): 16300 ng·h/mL
AUC(0-t) ([2]; Balb/c, mouse, 75 mg/kg PO, Fat, 0-1440 min, read-out: AUC0-t (converted)): 16300 ng·h/mL
Cmax ([2]; Balb/c, mouse, 75 mg/kg PO, Fat, read-out: Cmax): 9200 ng/mL
Tmax ([2]; Balb/c, mouse, 75 mg/kg PO, Fat, read-out: Tmax (converted)): 30 min
AUC(0-inf) ([2]; Balb/c, mouse, 75 mg/kg PO, Heart): 45600 ng·h/mL
AUC(0-t) ([2]; Balb/c, mouse, 75 mg/kg PO, Heart, 0-1440 min, read-out: AUC0-t (converted)): 45600 ng·h/mL
Cmax ([2]; Balb/c, mouse, 75 mg/kg PO, Heart, read-out: Cmax): 19400 ng/mL
Tmax ([2]; Balb/c, mouse, 75 mg/kg PO, Heart, read-out: Tmax (converted)): 15 min
AUC(0-inf) ([2]; Balb/c, mouse, 75 mg/kg PO, Liver): 293000 ng·h/mL
AUC(0-t) ([2]; Balb/c, mouse, 75 mg/kg PO, Liver, 0-1440 min, read-out: AUC0-t (converted)): 293000 ng·h/mL
Cmax ([2]; Balb/c, mouse, 75 mg/kg PO, Liver, read-out: Cmax): 114000 ng/mL
Tmax ([2]; Balb/c, mouse, 75 mg/kg PO, Liver, read-out: Tmax (converted)): 15 min
AUC(0-inf) ([2]; Balb/c, mouse, 75 mg/kg PO, Non-draining Lymph Node): 38800 ng·h/mL
AUC(0-t) ([2]; Balb/c, mouse, 75 mg/kg PO, Non-draining Lymph Node, 0-1440 min, read-out: AUC0-t (converted)): 38800 ng·h/mL
Cmax ([2]; Balb/c, mouse, 75 mg/kg PO, Non-draining Lymph Node, read-out: Cmax): 16100 ng/mL
Tmax ([2]; Balb/c, mouse, 75 mg/kg PO, Non-draining Lymph Node, read-out: Tmax (converted)): 15 min
AUC(0-inf) ([2]; Balb/c, mouse, 75 mg/kg PO, Small Intestine): 332000 ng·h/mL
AUC(0-t) ([2]; Balb/c, mouse, 75 mg/kg PO, Small Intestine, 0-1440 min, read-out: AUC0-t (converted)): 331000 ng·h/mL
Cmax ([2]; Balb/c, mouse, 75 mg/kg PO, Small Intestine, read-out: Cmax): 204000 ng/mL
Tmax ([2]; Balb/c, mouse, 75 mg/kg PO, Small Intestine, read-out: Tmax (converted)): 15 min
AUC(0-inf) ([2]; Balb/c, mouse, 75 mg/kg PO, Spinal Cord): 2450 ng·h/mL
AUC(0-t) ([2]; Balb/c, mouse, 75 mg/kg PO, Spinal Cord, 0-1440 min, read-out: AUC0-t (converted)): 2420 ng·h/mL
Cmax ([2]; Balb/c, mouse, 75 mg/kg PO, Spinal Cord, read-out: Cmax): 1010 ng/mL
Tmax ([2]; Balb/c, mouse, 75 mg/kg PO, Spinal Cord, read-out: Tmax (converted)): 15 min
AUC(0-inf) ([2]; Balb/c, mouse, 75 mg/kg PO, Spleen): 35200 ng·h/mL
AUC(0-t) ([2]; Balb/c, mouse, 75 mg/kg PO, Spleen, 0-1440 min, read-out: AUC0-t (converted)): 35200 ng·h/mL
Cmax ([2]; Balb/c, mouse, 75 mg/kg PO, Spleen, read-out: Cmax): 14200 ng/mL
Tmax ([2]; Balb/c, mouse, 75 mg/kg PO, Spleen, read-out: Tmax (converted)): 15 min
AUC(0-inf) ([2]; Balb/c, mouse, 75 mg/kg PO, Thymus): 25800 ng·h/mL
AUC(0-t) ([2]; Balb/c, mouse, 75 mg/kg PO, Thymus, 0-1440 min, read-out: AUC0-t (converted)): 25800 ng·h/mL
Cmax ([2]; Balb/c, mouse, 75 mg/kg PO, Thymus, read-out: Cmax): 9630 ng/mL
Tmax ([2]; Balb/c, mouse, 75 mg/kg PO, Thymus, read-out: Tmax (converted)): 5 min
Structure (SMILES): C[C@@H]1COCCN1c1cc(C2([S@](C)(=N)=O)CC2)nc(-c2cc[nH]c3nccc2-3)n1 [AZD6738]
Amount excreted, Ae ([1]; urine): 4.00 µg
